Laboratory results as given in PMC10644346, “Shotgun Kinetic Target-Guided Synthesis Approach Enables the Discovery of Small-Molecule Inhibitors against Pathogenic Free-Living Amoeba Glucokinases” (ACS Infectious Diseases, 2023).

Assays:
N. fowleri = tested on: N. fowleri; design: method as in PMID 30783001; conditions: media containing the glycolytic inhibitor; cited from earlier work
[1] = molecular target: T1, NfGlck (Naegleria fowleri glucokinase) (Naegleria fowleri, UniProt A0A384E136); design: method as in PMID 35604214; conditions: cited from earlier work; for selectivity over the human variant (HsGlck): NfGlck vs HsGlck; for NfGlck IC50: previously identified NfGlck inhibitors
[2] = molecular target: T2, BmGlck (Balamuthia mandrillaris glucokinase) (Balamuthia mandrillaris, UniProt Z9NIO0WF95); design: method as in PMID 35604214; conditions: cited from earlier work
[3] = molecular target: T3, AcGlck (Acanthamoeba castellanii glucokinase) (Acanthamoeba castellanii, UniProt L8GT25); design: method as in PMID 35604214; conditions: cited from earlier work
[4] = molecular target: T2, BmGlck (Balamuthia mandrillaris glucokinase); assay: Glucokinase assay (G6PDH-coupled reaction, absorbance at 340 nm), BmGlck; type: biochemical; conditions: 10 nM enzyme, 15 min preincubation, pH 8, triplicate
Description: (§1) The open reading frames of NfGlck, AcGlck, and BmGlck were cloned into pQE30, transformed into M15(pREP) Escherichia coli (Qiagen, Valencia, CA), and expressed as previously described.[48],[54] Briefly, E. coli M15(pREP4) harboring pQE30 constructs were inoculated and grown to an optical density at 600 nm (OD600) of ∼0.6 prior to induction with 500 μM isopropyl β-D-1-thiogalactopyranoside (IPTG). Protein from bacterial lysate was purified by nickel column chromatography (HisTrap FF; GE Healthcare Life Sciences, Pittsburgh, PA) followed by ion-exchange chromatography (HiTrap Q XL; GE Healthcare Life Sciences, Pittsburgh, PA). Protein was typically stored in 25 mM HEPES–Na (pH 7.4), 150 mM NaCl, and 50% glycerol after protein concentrations were determined by using a Bradford assay with bovine serum albumin (BSA) as a standard.
(§2) Enzyme activities were measured in triplicate using a coupled reaction described previously.[54] In a clear 96-well plate, enzyme (HsGlck, NfGlck, AcGlck, or BmGlck, all at 10 nM) was incubated with potential inhibitors (in DMSO) in their optimized assay buffer for 15 min at room temperature. For HsGlck and NfGlck, the assay buffer contained 50 mM TEA and 3.3 mM MgCl2, pH 7.4. For AcGlck and BmGlck, the assay buffer contained 50 mM Tris-HCl and 3.3 mM MgCl2, pH 8. Substrate buffer (425 μM glucose, 2.5 mM ATP, 1 U/mL G6PDH, and 0.75 mM NADP^+) was added to each well to start the reaction for a total reaction volume of 200 μL. Immediately after addition, absorbance was measured at 340 nm at 15 s intervals for 2 min by using a BioTek Synergy H1 microplate reader (BioTek, Winooski, VT). Dose–response analysis and IC50 values were performed by using Prism 9.0 (GraphPad software, San Diego, CA). As a control, enzyme activity in inhibitor solvent (DMSO) was included in every assay. To solve the mode of inhibition, NfGlck activity was measured with increasing substrate concentrations (0–1.25 mM) of glucose in the presence or absence of different inhibitor concentrations (0–10 μM) in technical triplicates. Data were then analyzed, and statistical analyses were performed by extra sum-of-squares F test to compare two models of inhibition. […] All statistical analyses were performed using Prism 9 software.

[5] = molecular target: T1, NfGlck (Naegleria fowleri glucokinase); assay: Glucokinase assay (G6PDH-coupled reaction, absorbance at 340 nm), NfGlck; type: biochemical; conditions: for IC50: 10 nM enzyme, 15 min preincubation, pH 7.4, triplicate
Description: as §1, §2

[6] = molecular target: T4, HsGlck (human glucokinase) (Homo sapiens, UniProt P35557); assay: Glucokinase assay (G6PDH-coupled reaction, absorbance at 340 nm), HsGlck; type: biochemical; conditions: 10 nM enzyme, 15 min preincubation, pH 7.4, triplicate
T4 sequence (P35557 1-465): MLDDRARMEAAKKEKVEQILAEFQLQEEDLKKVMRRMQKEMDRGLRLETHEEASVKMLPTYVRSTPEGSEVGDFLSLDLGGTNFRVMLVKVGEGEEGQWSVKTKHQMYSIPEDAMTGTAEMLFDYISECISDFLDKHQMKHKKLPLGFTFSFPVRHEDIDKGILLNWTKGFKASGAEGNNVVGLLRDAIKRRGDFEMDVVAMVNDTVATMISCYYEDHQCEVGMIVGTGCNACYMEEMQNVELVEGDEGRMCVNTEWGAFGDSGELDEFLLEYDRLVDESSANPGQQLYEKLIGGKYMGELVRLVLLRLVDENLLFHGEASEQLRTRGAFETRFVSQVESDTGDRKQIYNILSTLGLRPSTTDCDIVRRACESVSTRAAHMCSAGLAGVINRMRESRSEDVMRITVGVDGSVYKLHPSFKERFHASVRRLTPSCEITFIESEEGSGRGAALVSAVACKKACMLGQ
Description: as §2

[7] = molecular target: T3, AcGlck (Acanthamoeba castellanii glucokinase); assay: Glucokinase assay (G6PDH-coupled reaction, absorbance at 340 nm), AcGlck; type: biochemical; conditions: 10 nM enzyme, 15 min preincubation, pH 8, triplicate
Description: as §1, §2

T1 sequence (A0A384E136 entry or part of it): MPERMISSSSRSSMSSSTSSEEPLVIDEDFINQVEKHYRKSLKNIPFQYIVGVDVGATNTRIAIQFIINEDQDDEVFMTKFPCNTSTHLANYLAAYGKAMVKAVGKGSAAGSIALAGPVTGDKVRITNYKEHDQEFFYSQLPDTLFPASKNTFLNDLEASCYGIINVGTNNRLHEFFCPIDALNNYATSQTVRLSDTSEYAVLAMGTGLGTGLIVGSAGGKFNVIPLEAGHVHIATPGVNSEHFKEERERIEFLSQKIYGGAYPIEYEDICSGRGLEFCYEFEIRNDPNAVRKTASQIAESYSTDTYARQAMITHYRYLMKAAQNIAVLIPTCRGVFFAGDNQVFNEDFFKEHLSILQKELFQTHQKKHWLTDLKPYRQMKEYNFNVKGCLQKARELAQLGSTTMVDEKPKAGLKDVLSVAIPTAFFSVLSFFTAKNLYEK
T3 sequence (L8GT25 entry or part of it): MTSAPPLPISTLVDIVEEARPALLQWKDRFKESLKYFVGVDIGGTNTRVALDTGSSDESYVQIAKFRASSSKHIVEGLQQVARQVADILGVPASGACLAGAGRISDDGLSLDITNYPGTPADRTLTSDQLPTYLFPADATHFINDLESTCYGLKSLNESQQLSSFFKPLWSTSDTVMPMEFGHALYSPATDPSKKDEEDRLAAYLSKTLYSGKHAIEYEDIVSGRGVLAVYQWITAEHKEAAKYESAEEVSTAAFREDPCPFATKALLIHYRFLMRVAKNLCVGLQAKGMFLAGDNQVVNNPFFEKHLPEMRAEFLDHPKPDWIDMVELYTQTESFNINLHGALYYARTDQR

Structure (SMILES): O=C(O)C(=O)CBr [3-bromopyruvate]
- effect on N. fowleri cellular growth (N. fowleri): decrease in cellular growth

Structure (SMILES): N=C(N)Nc1ccc(-c2ccc(-c3ccc(N=C(N)N)c(Cl)c3)o2)cc1Cl [MMV688271]
- selectivity over the human variant (HsGlck) [1]: lacked significant selectivity
- NfGlck IC50 [1]: submicromolar
- activity against BmGlck [2]: not active
- activity against AcGlck [3]: not active

Structure (SMILES): O=c1c2ccccc2[se]n1-c1ccccc1 [SID856002, ebselen]
- selectivity over the human variant (HsGlck) [1]: lacked significant selectivity
- NfGlck IC50 [1]: submicromolar

Structure (SMILES): COc1cc(OC)cc(C(=O)NS(=O)(=O)c2ccc(CN3CCN(c4ccccc4)CC3)cc2)c1 [SZ1TA5]
- IC50 [4]: > 10 µM
- IC50 [5]: > 10 µM
- IC50 [6]: > 10 µM
- IC50 [7]: 11.6 ± 9.2 µM

Structure (SMILES): O=C(NS(=O)(=O)c1ccc(-c2ccc(C(F)(F)F)cc2)cc1)c1ccc2oc(-c3ccccc3)cc2c1 [SZ16TA41]
- IC50 [4]: 3 ± 0.54 µM
- IC50 [5]: > 10 µM
- IC50 [6]: > 10 µM
- IC50 [7]: > 10 µM

Structure (SMILES): Cn1cc(C(=O)NS(=O)(=O)CCN(CSCc2ccccc2)Cc2ccc3c(c2)OCO3)c2cc(-c3ccc(S(C)(=O)=O)cc3)ccc21 [SZ28TA26]
- IC50 [4]: 4.77 ± 1 µM
- IC50 [5]: > 10 µM
- IC50 [6]: > 10 µM
- IC50 [7]: 4.35 ± 0.31 µM

Structure (SMILES): O=C(NS(=O)(=O)CCN(CSCc1ccccc1)Cc1ccc2c(c1)OCO2)c1ccc2c(ccn2Cc2ccc(C(F)(F)F)cc2C(F)(F)F)c1 [SZ28TA30]
- IC50 [4]: 1.68 ± 0.05 µM
- IC50 [5]: > 10 µM
- IC50 [6]: > 10 µM
- IC50 [7]: > 10 µM

Structure (SMILES): O=C(NS(=O)(=O)CCN(CSCc1ccccc1)Cc1ccc2c(c1)OCO2)c1ccc2oc(-c3ccccc3)cc2c1 [SZ28TA41]
- IC50 [4]: 7.22 ± 0.28 µM
- IC50 [5]: > 10 µM
- IC50 [6]: > 10 µM
- IC50 [7]: 3.09 ± 0.66 µM

Structure (SMILES): O=C(NS(=O)(=O)c1ccc(-c2ccc3c(c2)OCCO3)cc1)c1ccc2c(ccn2Cc2ccc(C(F)(F)F)cc2C(F)(F)F)c1 [SZ33TA30]
- IC50 [4]: 1.48 ± 0.13 µM
- IC50 [5]: > 10 µM
- IC50 [6]: > 10 µM
- IC50 [7]: 4.4 ± 0.4 µM

Structure (SMILES): Cn1cc(C(=O)c2cccs2)c2cc(C(=O)NS(=O)(=O)c3ccc(-c4ccc5c(c4)OCCO5)cc3)ccc21 [SZ33TA45]
- IC50 [4]: > 10 µM
- IC50 [5]: 10.9 ± 2 µM
- IC50 [6]: 10.6 ± 0.45 µM
- IC50 [7]: > 10 µM

Structure (SMILES): CCOc1ccc(-c2ccc3c(c2)c(C(=O)NS(=O)(=O)c2ccc(-c4ccc(Oc5ccccc5)cc4)cc2)cn3C)cc1F [SZ35TA23]
- IC50 [4]: > 10 µM
- IC50 [5]: > 10 µM
- IC50 [6]: > 10 µM
- IC50 [7]: 6.9 µM

Structure (SMILES): O=C(NS(=O)(=O)c1ccc(-c2ccc(Oc3ccccc3)cc2)cc1)c1ccc2c(ccn2Cc2ccc(C(F)(F)F)cc2C(F)(F)F)c1 [SZ35TA30]
- IC50 [4]: 0.33 ± 0.05 µM
- IC50 [5]: 1.9 ± 1.1 µM
- selectivity for NfGlck over HsGlck ([5]; NfGlck vs HsGlck IC50): slight selectivity
- IC50 [6]: 8.5 ± 0.37 µM
- IC50 [7]: 0.21 ± 0.04 µM

Structure (SMILES): O=C(NS(=O)(=O)c1ccc(-c2ccc(Oc3ccccc3)cc2)cc1)c1ccc2oc(-c3ccccc3)cc2c1 [SZ35TA41]
- IC50 [4]: 1.19 ± 0.29 µM
- IC50 [5]: > 10 µM
- IC50 [6]: > 10 µM
- IC50 [7]: 1.6 ± 0.1 µM

Structure (SMILES): Cn1cc(C(=O)c2cccs2)c2cc(C(=O)NS(=O)(=O)c3ccc(-c4ccc(Oc5ccccc5)cc4)cc3)ccc21 [SZ35TA45]
- IC50 [4]: 1.92 ± 0.13 µM
- IC50 [5]: > 10 µM
- IC50 [6]: > 10 µM
- IC50 [7]: 3.3 ± 1.3 µM

Structure (SMILES): COc1ccccc1-c1ccc(C(=O)NS(=O)(=O)c2ccc(-c3cc4ccccc4s3)cc2)cc1 [SZ37TA21]
- IC50 [4]: 4.83 ± 0.76 µM
- IC50 [5]: > 10 µM
- IC50 [6]: > 10 µM
- IC50 [7]: 5.1 ± 0.5 µM
